Measurements from patent publication US8518930B2, “Therapeutic combination comprising a CDKS inhibitor and an antineoplastic agent” (Nerviano Medical Sciences S.r.l., priority 2008, dated 2013).
pIC50: −log10 of the molar value. Read-outs that look alike come from different tables or passages of the source.

Tests used:
[1] = system: A2780 human ovarian carcinoma cells; experiment: In vitro cytotoxic activity of the combination with SN-38 (cell proliferation, cellular ATP monitoring); type: cell-based; conditions: for pIC50: single agent, A2780, SN-38 1 hour, compound of formula (I) 24 hours, counted 72 hours after first treatment
Method: (§1) SN38 is the active metabolite of irinotecan, from which is obtained by hydrolysis. Exponentially growing A2780 human ovarian carcinoma cells were seeded and incubated at 37° C. in a humidified 5% CO2 atmosphere. After 24 hours, scalar doses of SN-38 were added to the medium for 1 hour, cells were washed and compound of formula (I) added for 24 hours. Cells were then washed and counted 72 hours after the first treatment. Cell proliferation was determined by a cellular adenosine triphosphate monitoring system. Cell proliferation was compared to control cells. The concentration inhibiting cell proliferation by 50% (IC50) was calculated.
(§2) The combination indices (C.I.) were calculated using a computer program for multiple drug effect analysis based on the equation of Chou-Talalay (Adv Enzyme Regul 1984; 22:27-55) for mutually nonexclusive drugs, where a C.I. of <1 indicates a more than additive effect.

[2] = system: A2780 human ovarian carcinoma cells; experiment: In vitro cytotoxic activity of the combination with gemcitabine (cell proliferation, cellular ATP monitoring); type: cell-based; conditions: for pIC50: Homo sapiens, single agent, A2780, compound of formula (I) 24 hours, gemcitabine 1 hour, counted 72 hours after first treatment
Method: as §1, with “Exponentially” for “SN38 is the active metabolite of irinotecan, from which is obtained by hydrolysis. Exponentially”, “the compound of formula (I)” for “SN-38”, “24 hours,” for “1 hour,”, “gemcitabine” for “compound of formula (I)”, “1 hour.” for “24 hours.”
as §2

[3] = system: A2780 human ovarian carcinoma cells; experiment: In vitro cytotoxic activity of the combination with oxaliplatin (cell proliferation, cellular ATP monitoring); type: cell-based; conditions: for pIC50: single agent, A2780, oxaliplatin 1 hour, compound of formula (I) 24 hours, counted 72 hours after first treatment
Method: as §1, with “Exponentially” for “SN38 is the active metabolite of irinotecan, from which is obtained by hydrolysis. Exponentially”, “oxaliplatin” for “SN-38”
as §2

[4] = system: U87-MG human glioblastoma; conditions: for T − C: time to reach 1 g; for Toxicity: male, Balb Nu/Nu (athymic), mouse, in vivo, po, 7 days
Method: Balb, Nu/Nu male mice, from Harlan (Italy), were maintained in cages with paper filter cover, food and bedding sterilized and water acidified. Fragments of U87-MG human glioblastoma were implanted subcutaneously in athymic mice. […] The treatment with temozolomide started when tumors were palpable. Compounds were prepared immediately before treatment.
(§3) Temozolomide was administered orally in a volume of 10 ml/kg at the dose of 25 mg/kg for 5 consecutive days. […] Tumor growth and body weight were measured every 3 days. Tumor growth was assessed by caliper. The two diameters were recorded and the tumor weight was calculated according the following formula: length (mm)×width^2/2. The effect of the antitumor treatment was evaluated as the delay in the onset of an exponential growth of the tumor (see for references, Anticancer drugs 7:437-60,1996). This delay (T-C value) was defined as the difference of time (in days) required for the treatment group (T) and the control group (C) tumors to reach a predetermined size (1 g). Toxicity was evaluated on the basis of body weigh reduction.

[5] = system: N-592 human small cell lung cancer tumors; conditions: for T − C: time to reach 1 g; for Toxicity: male, Balb Nu/Nu (athymic), mouse, in vivo, po, 17 days
Method: Balb, Nu/Nu male mice, from Harlan (Italy), were maintained in cages with paper filter cover, food and bedding sterilized and water acidified. Fragments of N-592 human small cell lung cancer tumors were implanted subcutaneously in athymic mice.
(§4) The treatment started when tumors were palpable. Both compounds were prepared immediately before treatment.
as §3, with “Topotecan” for “Temozolomide”, “by intravenous route” for “orally”, “6” for “25”, “on days 1, 5, 9, 13, 17.” for “for 5 consecutive days.”, “references” for “references,”, “7:437-60, 1996).” for “7:437-60,1996).”

[6] = system: HCT-116 human colon carcinoma; experiment: In vivo antitumor efficacy in combination with 5-FU, subcutaneous xenograft; conditions: for T − C: time to reach 1 g
Method: Balb, Nu/Nu male mice, from Harlan (Italy), were maintained in cages with paper filter cover, food and bedding sterilized and water acidified. Fragments of HCT-116 human colon carcinoma were implanted subcutaneously in athymic mice.
as §4
5-FU was administered by intravenous route in a volume of 10 ml/kg at the dose of 50 mg/kg on days 1, 8. […] Toxicity was evaluated on the basis of body weigh reduction.

[7] = temozolomide 25 mg/kg orally, days 1-5
[8] = compound of formula (I) 20 mg/kg orally twice a day, days 1-7
[9] = compound of formula (I) 40 mg/kg orally twice a day, days 1-7

CCc1c2c(nc3ccc(O)cc13)-c1cc3c(c(=O)n1C2)COC(=O)[C@]3(O)CC [SN-38, reference compound]
pIC50 [1]: 7.41

Nc1ccn([C@@H]2O[C@H](CO)[C@@H](O)C2(F)F)c(=O)n1 [Gemcitabine, gemcitabine, reference compound]
pIC50 [2]: 6.44

O=C1[O][Pt]2([NH][C@@H]3CCCC[C@H]3[NH]2)[O]C1=O [Oxaliplatin, oxaliplatin, reference compound]
pIC50 [3]: 5.61

Cn1nnc2c(C(N)=O)ncn2c1=O [temozolomide, reference compound]
Tumor-free mice [4, 7]: 1/8 | T − C [4, 7]: 30.88 days

CNC(=O)c1nn(C)c2c1C(C)(C)Cc1cnc(Nc3ccc(N4CCN(C)CC4)cc3)nc1-2 [compound of formula (I), 8-[4-(4-methyl-piperazin-1-yl)-phenylamino]-1,4,4-trimethyl-4,5-dihydro-1H-pyrazolo[4,3-h]quinazoline-3-carboxylic acid methylamide]
T − C ([5]; Compound of formula (I) 20 mg/kg orally twice a day, days 1-17): 1.61 days | T − C ([5]; Compound of formula (I) 30 mg/kg orally twice a day, days 1-17): 2.98 days | combination effect ([5]; compound of formula (I) combined with topotecan, N-592 xenograft): clear synergistic effect | Toxicity ([5]; 20 mg/kg): 0/7 | Toxicity ([5]; 30 mg/kg): 0/7 | Tumor-free mice [4, 8]: 0/8 | T − C [4, 8]: 1.74 days | Tumor-free mice [4, 9]: 0/8 | T − C [4, 9]: 7.14 days | combination effect ([4]; compound of formula (I) combined with temozolomide, U87-MG xenograft): clear synergic effect | Toxicity ([4]; 20 mg/kg): 0/8 | Toxicity ([4]; 40 mg/kg): 0/8 | pIC50 ([1]; Homo sapiens): 6.16 | combination effect ([1]; compound of formula (I) combined with SN-38, human tumor cells): more than additive (i.e. synergic) effect | pIC50 [2]: 6.38 | combination effect ([2]; compound of formula (I) combined with gemcitabine, human tumor cells): more than additive (i.e. synergic) effect | pIC50 ([3]; Homo sapiens): 6.06 | combination effect ([3]; compound of formula (I) combined with oxaliplatin, human tumor cells): more than additive (i.e. synergic) effect | T − C ([6]; Compound of formula (I) 20 mg/kg orally twice a day, days 2-7 and 9-14): 4.93 days | combination effect ([6]; compound of formula (I) combined with 5-FU, HCT-116 xenograft): clear synergistic effect | Toxicity ([6]; male, Balb Nu/Nu (athymic), mouse, in vivo, po, 20 mg/kg): 0/7

O=c1[nH]cc(F)c(=O)[nH]1 [5-FU, 5-fluorouracil, reference compound]
T − C ([6]; 5-FU 50 mg/kg intravenous, days 1, 8): 2.17 days

CC[C@@]1(O)C(=O)OCc2c1cc1n(c2=O)Cc2cc3c(CN(C)C)c(O)ccc3nc2-1 [topotecan, reference compound]
T − C ([5]; topotecan 6 mg/kg intravenous, days 1, 5, 9, 13, 17): 5.64 days
